Data from patent US7544694B2, “Substituted diaza-spiro-[5.5]-undecane derivatives and their use as neurokinin antagonists” (Janssen Pharmaceutica N.V., priority 2004, dated 2009).

Columns and labels:
Format in all cases: cell-based
[1] = target: T1, NK3 (Homo sapiens, UniProt P29371); experiment: Signal transduction (ST), intracellular Ca++ (FLIPR), NK3; settings: antagonist, read-out: NK3 pIC50 (converted)
T1 sequence (P29371 1-465): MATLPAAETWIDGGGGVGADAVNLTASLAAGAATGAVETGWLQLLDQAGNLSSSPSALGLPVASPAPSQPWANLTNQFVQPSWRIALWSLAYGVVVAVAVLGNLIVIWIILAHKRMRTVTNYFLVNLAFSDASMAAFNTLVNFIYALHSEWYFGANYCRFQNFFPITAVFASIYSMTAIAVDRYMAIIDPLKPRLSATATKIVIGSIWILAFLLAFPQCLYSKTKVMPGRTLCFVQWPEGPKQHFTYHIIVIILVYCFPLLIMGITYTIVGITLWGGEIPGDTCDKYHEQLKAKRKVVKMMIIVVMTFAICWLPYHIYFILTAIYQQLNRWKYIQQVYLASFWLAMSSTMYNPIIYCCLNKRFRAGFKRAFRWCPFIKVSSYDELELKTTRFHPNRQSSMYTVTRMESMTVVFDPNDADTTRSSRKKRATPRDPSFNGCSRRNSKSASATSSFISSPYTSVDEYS
Description: [The source words this procedure for another target and reports this target under the same test.] (§1) This test evaluates in vitro functional NK1 antagonistic activity. For the measurements of intracellular Ca^++ concentrations the cells were grown on 96-well (black wall/transparent bottom) plates from Costar for 2 days until they reached confluence. The cells were loaded with 2 μM Fluo3 in DMEM containing 0.1% BSA and 2.5 mM probenecid for 1 h at 37° C. They were washed 3× with a Krebs buffer (140 mM NaCl, 1 mM MgCl2×6H2O, 5 mM KCl, 10 mM glucose, 5 mM HEPES; 1.25 mM CaCl2; pH 7.4) containing 2.5 mM probenecid and 0.1% BSA (Ca^++-buffer). The cells were preincubated with a concentration range of antagonists for 20 min at RT and Ca^++-signals after addition of the agonists were measured in a Fluorescence Image Plate Reader (FLIPR from Molecular Devices, Crawley, England). The peak of the Ca^++-transient was considered as the relevant signal and the mean values of corresponding wells were analysed as described below.
(§2) The sigmoidal dose response curves were analysed by computerised curve-fitting, using the GraphPad Program. The EC50-value of a compound is the effective dose showing 50% of maximal effect. For mean curves the response to the agonist with the highest potency was normalised to 100%. For antagonist responses the IC50-value was calculated using non-linear regression.
(§3) The last columns indicate—without being limited thereto—for which action the compounds might be most suitable. Of course, since for some neurokinin receptors no data was determined, it is obvious that these compounds might be attributed to another suitable use.

[2] = target: T2, NK2 (Homo sapiens, UniProt P21452); experiment: Signal transduction (ST), intracellular Ca++ (FLIPR), NK2; settings: antagonist, read-out: NK2 pIC50 (converted)
T2 sequence (P21452 1-398): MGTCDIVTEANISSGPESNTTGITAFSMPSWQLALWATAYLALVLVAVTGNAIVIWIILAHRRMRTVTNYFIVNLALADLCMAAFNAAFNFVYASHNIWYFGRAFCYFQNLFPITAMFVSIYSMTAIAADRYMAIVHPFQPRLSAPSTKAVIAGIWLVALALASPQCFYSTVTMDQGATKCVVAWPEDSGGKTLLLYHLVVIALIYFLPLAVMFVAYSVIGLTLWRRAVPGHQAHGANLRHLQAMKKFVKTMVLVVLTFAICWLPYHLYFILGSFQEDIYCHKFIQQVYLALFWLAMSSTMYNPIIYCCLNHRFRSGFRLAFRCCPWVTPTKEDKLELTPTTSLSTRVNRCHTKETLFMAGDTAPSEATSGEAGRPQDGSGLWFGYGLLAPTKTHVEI
Description: [The source words this procedure for another target and reports this target under the same test.] as §1, §2, §3

[3] = target: NK1 (Homo sapiens, UniProt P25103); experiment: Signal transduction (ST), intracellular Ca++ (FLIPR), functional NK1 antagonistic activity; settings: antagonist, read-out: NK1 pIC50 (converted)
Description: as §1, §2, §3

NK1, sequence (P25103 whole entry): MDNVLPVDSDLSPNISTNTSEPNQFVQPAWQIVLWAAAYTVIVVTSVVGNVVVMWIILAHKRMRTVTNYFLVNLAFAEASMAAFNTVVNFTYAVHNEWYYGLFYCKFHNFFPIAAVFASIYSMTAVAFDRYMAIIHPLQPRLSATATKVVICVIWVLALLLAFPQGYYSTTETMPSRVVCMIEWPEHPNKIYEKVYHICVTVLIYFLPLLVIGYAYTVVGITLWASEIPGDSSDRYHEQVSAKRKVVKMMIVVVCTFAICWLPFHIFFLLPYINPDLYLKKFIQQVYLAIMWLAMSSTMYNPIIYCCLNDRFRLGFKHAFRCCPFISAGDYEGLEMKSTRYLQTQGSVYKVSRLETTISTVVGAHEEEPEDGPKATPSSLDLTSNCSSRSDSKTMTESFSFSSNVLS

Compound	IC50 [1] [nM]	IC50 [2] [nM]	IC50 [3] [nM]
O=C(C1CC1)N1CCC2(CC1)CCN(C(=O)[C@H]1CCN(C(=O)c3cc(C(F)(F)F)cc(C(F)(F)F)c3)[C@H](Cc3ccccc3)C1)CC2 [Compound 186]	5370	5010	17
O=C(c1ccsc1)N1CCC2(CC1)CCN([C@H]1CCN(C(=O)c3cc(C(F)(F)F)cc(C(F)(F)F)c3)[C@H](Cc3ccc(Cl)c(Cl)c3)C1)CC2 [Compound 133]	4900	3720	53.7
O=C(c1cc(C(F)(F)F)cc(C(F)(F)F)c1)N1CC[C@H](N2CCC3(CC2)CCN(S(=O)(=O)c2c(Cl)cccc2Cl)CC3)C[C@H]1Cc1ccccc1 [Compound 111]	5370	~229	204
O=C(C1CC1)N1CCCC2(CCN([C@@H]3CCN(C(=O)c4cc(C(F)(F)F)cc(C(F)(F)F)c4)[C@H](Cc4ccccc4)C3)CC2)C1 [Compound 173]	> 10000	~1620	30.9
CC(C)(C)C(=O)N1CCC2(CC1)CCN([C@H]1CCN(C(=O)c3cc(C(F)(F)F)cc(C(F)(F)F)c3)[C@H](Cc3ccccc3)C1)CC2 [Compound 7]	> 10000	> 10000	115
O=C(c1cnc2ccccc2n1)N1CCC2(CC1)CCN([C@H]1CCN(C(=O)c3cc(C(F)(F)F)cc(C(F)(F)F)c3)[C@H](Cc3ccccc3)C1)CC2 [Compound 66]	6920	3720	66.1
O=C(c1cc(C(F)(F)F)cc(C(F)(F)F)c1)N1CC[C@H](N2CCC3(CC2)CCN(S(=O)(=O)c2ccc(Cl)cc2Cl)CC3)C[C@H]1Cc1ccccc1 [Compound 112]	> 10000	> 10000	550
Cc1cccc(S(=O)(=O)N2CCC3(CCN([C@H]4CCN(C(=O)c5cc(C(F)(F)F)cc(C(F)(F)F)c5)[C@H](Cc5ccccc5)C4)CC3)CC2)c1 [Compound 104]	1950	~4570	64.6
O=C(c1cc(C(F)(F)F)cc(C(F)(F)F)c1)N1CC[C@H](N2CCC3(CC2)CCN(S(=O)(=O)c2ccc(F)cc2)CC3)C[C@H]1Cc1ccccc1 [Compound 116]	708	> 10000	52.5
CC(C)CN1CCC2(CCN([C@@H]3CCN(C(=O)c4cc(C(F)(F)F)cc(C(F)(F)F)c4)[C@H](Cc4ccccc4)C3)CC2)CC1=O [Compound 193]	5750	2510	240
O=C(c1cc(C(F)(F)F)cc(C(F)(F)F)c1)N1CC[C@H](N2CCC3(CC2)CCN(S(=O)(=O)Cc2cccc(Cl)c2)CC3)C[C@H]1Cc1ccccc1 [Compound 127]	> 10000	4680	263
O=C1OC(CC(=O)N2CCC3(CC2)CCN([C@H]2CCN(C(=O)c4cc(C(F)(F)F)cc(C(F)(F)F)c4)[C@H](Cc4ccccc4)C2)CC3)c2ccccc21 (stereo partly drawn) [Compound 82]	8910	2000	46.8
Cn1cccc1C(=O)N1CCC2(CC1)CCN([C@H]1CCN(C(=O)c3cc(C(F)(F)F)cc(C(F)(F)F)c3)[C@H](Cc3ccccc3)C1)CC2 [Compound 33]	> 10000	> 10000	200
O=C(c1cc(C(F)(F)F)cc(C(F)(F)F)c1)N1CC[C@H](N2CCC3(CCN(C(=O)C45CC6CC(CC(C6)C4)C5)CC3)CC2)C[C@H]1Cc1ccccc1 [Compound 60]	4680	4680	240
O=C(c1ccsc1)N1CCC2(CCN(C[C@H]3CCN(C(=O)c4cc(C(F)(F)F)cc(C(F)(F)F)c4)[C@H](Cc4ccccc4)C3)CC2)CC1 [Compound 182]	9120	> 10000	38
COc1ccc(S(=O)(=O)N2CCC3(CCN([C@H]4CCN(C(=O)c5cc(C(F)(F)F)cc(C(F)(F)F)c5)[C@H](Cc5ccccc5)C4)CC3)CC2)cc1OC [Compound 122]	> 10000	3980	44.7

Compound	IC50 [1] [nM]	IC50 [2] [nM]	IC50 [3] [nM]
N#Cc1ccc(S(=O)(=O)N2CCC3(CCN(C4CCN(C(=O)c5cc(C(F)(F)F)cc(C(F)(F)F)c5)C(Cc5ccccc5)C4)CC3)CC2)cc1 (stereo not drawn) [Compound 119]	1580	1070	66.1
O=C(c1cc(C(F)(F)F)cc(C(F)(F)F)c1)N1CC[C@H](N2CCC3(CCN(C(=O)C4(c5ccccc5)CC4)CC3)CC2)C[C@H]1Cc1ccccc1 [Compound 89]	> 10000	2510	148
O=C(c1cccnc1)N1CCC2(CC1)CCN([C@H]1CCN(C(=O)c3cc(C(F)(F)F)cc(C(F)(F)F)c3)[C@H](Cc3ccccc3)C1)CC2 [Compound 50]	> 10000	2630	77.6
O=C1CC2(CCN1CC1CC1)CCN(C1CCN(C(=O)c3cc(C(F)(F)F)cc(C(F)(F)F)c3)C(Cc3ccccc3)C1)CC2 (stereo not drawn) [Compound 195]	1450	~1410	53.7
CC(=O)Nc1ccc(S(=O)(=O)N2CCC3(CCN([C@H]4CCN(C(=O)c5cc(C(F)(F)F)cc(C(F)(F)F)c5)[C@H](Cc5ccccc5)C4)CC3)CC2)cc1 [Compound 124]	1780	~2570	23.4
O=C(c1cc(C(F)(F)F)cc(C(F)(F)F)c1)N1CC[C@H](N2CCC3(CC2)CCN(S(=O)(=O)c2ccc(Cl)s2)CC3)C[C@H]1Cc1ccccc1 [Compound 94]	575	> 10000	132
O=C(C1CC1)N1CCCC2(CCN([C@H]3CCN(C(=O)c4cc(C(F)(F)F)cc(C(F)(F)F)c4)[C@H](Cc4ccccc4)C3)CC2)C1 [Compound 172]	5750	6920	93.3
O=C(c1cc(C(F)(F)F)cc(C(F)(F)F)c1)N1CC[C@H](N2CCC3(CC2)CCN(S(=O)(=O)c2cccc(Cl)c2)CC3)C[C@H]1Cc1ccccc1 [Compound 107]	3160	4170	115
Cc1noc(C)c1S(=O)(=O)N1CCC2(CCN([C@H]3CCN(C(=O)c4cc(C(F)(F)F)cc(C(F)(F)F)c4)[C@H](Cc4ccccc4)C3)CC2)CC1 [Compound 101]	6030	2000	49
O=C(C1CCN(C(=O)c2cc(C(F)(F)F)cc(C(F)(F)F)c2)C(Cc2ccccc2)C1)N1CCC2(CCN(Cc3ccccc3)CC2)CC1 (stereo not drawn) [Compound 185]	> 10000	5500	81.3
O=C(c1ccsc1)N1CCCC2(CCN([C@H]3CCN(C(=O)c4cc(C(F)(F)F)cc(C(F)(F)F)c4)[C@H](Cc4ccccc4)C3)CC2)C1 [Compound 175]	> 10000	4470	15.5
O=C(C1CCOC1)N1CCC2(CC1)CCN([C@H]1CCN(C(=O)c3cc(C(F)(F)F)cc(C(F)(F)F)c3)[C@H](Cc3ccccc3)C1)CC2 (stereo partly drawn) [Compound 21]	2140	2340	16.6
O=C(c1cc(C(F)(F)F)cc(C(F)(F)F)c1)N1CC[C@H](N2CCC3(CC2)CCN(S(=O)(=O)Cc2ccccc2)CC3)C[C@H]1Cc1ccccc1 [Compound 126]	3980	3390	33.1
Cc1cc(=O)oc(C)c1C(=O)N1CCC2(CC1)CCN([C@H]1CCN(C(=O)c3cc(C(F)(F)F)cc(C(F)(F)F)c3)[C@H](Cc3ccccc3)C1)CC2 [Compound 47]	> 10000	~10000	66.1
O=C(c1ccoc1)N1CCCC2(CCCN(C3CCN(C(=O)c4cc(C(F)(F)F)cc(C(F)(F)F)c4)C(Cc4ccccc4)C3)C2)C1 (stereo not drawn) [Compound 212]	3800	3550	631
Cc1ccsc1C(=O)N1CCC2(CC1)CCN([C@H]1CCN(C(=O)c3cc(C(F)(F)F)cc(C(F)(F)F)c3)[C@H](Cc3ccccc3)C1)CC2 [Compound 32]	6610	3160	75.9
